From PubChem BioAssay AID624376 (Broad Institute, 2012) come the findings set out here.

Each structure is given as a SMILES string. Records with an inconclusive call do not appear.

In general, AC50 refers to the concentration giving half of the maximal activity seen.

The test system of the experiment is LMP1-induced NF-kappaB luciferase reporter cells, luminescence. The experiment can be described thus: inhibitors of EBV LMP1 NF-kappaB signaling – cell-based, luciferase reporter, luminescence, dry powder, set 2, dose response (AID 624376). (In general: Reporter assays use an easily measured gene product as a stand-in for the process of interest.)
For the compound `Cc1cc(C(=O)Nc2ccc3c(c2)C(=O)N(C)[C@H]2CC[C@@H](CC(=O)NCc4ccc(-c5ccccc5)cc4)O[C@H]2CO3)no1`, the AC50 was 10.8 µM.
In the case of `COc1ccccc1C#Cc1ccc2c(c1)O[C@H](CN(C)Cc1cccnc1)[C@H](C)CN([C@@H](C)CO)S2(=O)=O`, the half-maximal activity concentration (AC50) was 17.4 µM.
As to `O=C(C[C@@H]1CC[C@H]2[C@@H](COC[C@H](O)CN2Cc2ccc(Oc3ccccc3)cc2)O1)N1CCc2ccccc2C1`, the half-maximal activity concentration (AC50) is 19.7 µM.
The result for `CC(C)c1ccc(NC(=O)C[C@H]2CC[C@H]3[C@@H](COc4ccc(NC(=O)Nc5ccc(F)c(F)c5)cc4C(=O)N3C)O2)cc1` reads 22.2 µM; that for `O=C(C[C@@H]1C[C@H]2c3cc(NC(=O)c4ccc5c(c4)OCO5)ccc3O[C@H]2[C@H](CO)O1)NC1CCCCC1`, 16.8 µM; that for `O=C(C[C@@H]1C[C@@H]2c3cc(NC(=O)c4ccc5c(c4)OCO5)ccc3O[C@@H]2[C@@H](CO)O1)NCc1ccc(Oc2ccccc2)cc1`, 9.85 µM.
In the case of `O=C(Nc1ccc(C(F)(F)F)cc1)Nc1ccc2c(c1)[C@@H]1C[C@H](CC(=O)N3CCc4ccccc4C3)O[C@@H](CO)[C@@H]1O2`, the AC50 is 15.1 µM.
The result for `CN(C)C(=O)c1cccc(-c2cccc(-c3nc(C(=O)NCc4ccccc4)cc4c3[C@@H](CCO)N([S@](=O)C(C)(C)C)C4)c2)c1` reads 16.9 µM; that for `Cc1ccc(S(=O)(=O)N(C)C[C@H]2Oc3cc(C#Cc4ccncc4)ccc3S(=O)(=O)N([C@@H](C)CO)C[C@@H]2C)cc1`, 21.2 µM.
The value for `CN(C)C(=O)c1ccc(-c2cccc(-c3nc(C(=O)NCc4ccccc4)cc4c3[C@@H](CCO)N([S@](=O)C(C)(C)C)C4)c2)cc1` was 13.7 µM; that for `O=C(C[C@H]1CC[C@H]2[C@@H](COC[C@@H](O)CN2Cc2ccc3c(c2)OCO3)O1)Nc1ccc(-c2ccccc2)cc1` was 24.1 µM; that for `O=C(Nc1ccc(C(F)(F)F)cc1)Nc1ccc2c(c1)[C@@H]1C[C@H](CC(=O)N3CCc4ccccc4C3)O[C@H](CO)[C@@H]1O2` was 18.3 µM.
The value for `O=C(C[C@@H]1CC[C@@H]2[C@H](COC[C@@H](O)CN2Cc2ccc3c(c2)OCO3)O1)Nc1ccc(-c2ccccc2)cc1` was 10.2 µM; that for `COc1ccccc1C#Cc1ccc2c(c1)O[C@H](CN(C)Cc1cccnc1)[C@H](C)CN([C@H](C)CO)S2(=O)=O` was 22.9 µM.
Turning to `C[C@H]1CN([C@@H](C)CO)C(=O)c2cc(C#Cc3ccccc3F)cnc2O[C@@H]1CN(C)C(=O)C1CCCCC1`, the AC50 was 27.7 µM.
`COc1ccc(-c2cccc(-c3nc(C(=O)NCC(F)(F)F)cc4c3[C@H](CCO)N([S@@](=O)C(C)(C)C)C4)c2)cc1`: the AC50 was 24.3 µM.
As to `Cc1ccc(S(=O)(=O)N(C)C[C@H]2Oc3cc(C#Cc4ccncc4)ccc3S(=O)(=O)N([C@@H](C)CO)C[C@H]2C)cc1`, the concentration at half-maximal activity (AC50) is 21.4 µM.
